Data: US11136296B2, “Substituted N-arylethyl-2-arylquinoline-4-carboxamides and use thereof” (Bayer Aktiengesellschaft, priority 2017, dated 2021)

Target: FP receptor (Homo sapiens (Human), UniProt P43088)
Assay: In vitro test of inhibition of human FP receptor activity (PGF2α-induced calcium flux in FP-expressing CHEM1 cells)
Format: cell-based
Settings: PGF2α-induced (2 nM) calcium flux in FP-expressing CHEM1 cells; some as mean values from multiple determinations
From the text: Table 1 below lists the IC50 values from this assay for individual working examples of the invention (some as mean values from multiple independent individual determinations): […]

Chain of FP receptor (P43088 whole entry): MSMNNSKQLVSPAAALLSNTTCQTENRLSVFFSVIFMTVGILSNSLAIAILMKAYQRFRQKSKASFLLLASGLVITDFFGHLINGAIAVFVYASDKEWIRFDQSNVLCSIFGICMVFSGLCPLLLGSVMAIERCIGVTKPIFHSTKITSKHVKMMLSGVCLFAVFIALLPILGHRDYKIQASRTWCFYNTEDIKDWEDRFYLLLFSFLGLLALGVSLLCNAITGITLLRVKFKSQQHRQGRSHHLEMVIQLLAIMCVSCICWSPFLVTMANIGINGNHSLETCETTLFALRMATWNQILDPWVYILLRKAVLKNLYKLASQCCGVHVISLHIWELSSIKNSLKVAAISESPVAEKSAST

Row | Structure (SMILES) | IC50
1 | Cc1c(-c2ccccc2)nc2ccc(Br)cc2c1C(=O)NCC(CC(=O)O)c1ccccn1 (racemic) [Example 102, (+/−)-4-{[(6-Bromo-3-methyl-2-phenylquinolin-4-yl)carbonyl]amino}-3-(pyridin-2-yl)butanoic Acid] | 0.46 µM
2 | Cc1c(-c2ccccc2)nc2ccc(Br)cc2c1C(=O)NCC(O)(C(=O)O)c1ccccc1 (single isomer, unassigned; (+)) [Example 20, (+)-3-{[(6-Bromo-3-methyl-2-phenylquinolin-4-yl)carbonyl]amino}-2-hydroxy-2-phenylpropanoic Acid] | 0.097 µM
3 | Cc1c(-c2ccccc2)nc2ccc(Br)cc2c1C(=O)NCC(C)(C(=O)O)c1ncccc1Cl (single isomer, unassigned) [Example 28, 3-{[(6-Bromo-3-methyl-2-phenylquinolin-4-yl)carbonyl]amino}-2-(3-chloropyridin-2-yl)-2-methylpropanoic Acid] | 0.1 µM
4 | Cc1c(-c2ccccc2)nc2ccc(Br)cc2c1C(=O)NCC(C)(CC(=O)O)c1ncccc1Cl (single isomer, unassigned; (+)) [Example 86, (+)-4-{[(6-Bromo-3-methyl-2-phenylquinolin-4-yl)carbonyl]amino}-3-(3-chloropyridin-2-yl)-3-methylbutanoic Acid] | 0.24 µM
5 | Cc1c(-c2ccccc2)nc2ccc(Br)cc2c1C(=O)NCC(C)(C(=O)O)c1ccccc1Cl (single isomer, unassigned; (-)) [Example 36, (−)-3-{[(6-Bromo-3-methyl-2-phenylquinolin-4-yl)carbonyl]amino}-2-(2-chlorophenyl)-2-methylpropanoic Acid] | 0.81 µM
6 | Cc1c(-c2ccccc2)nc2ccc(Br)cc2c1C(=O)NCC(CC(=O)O)c1ccc(Cl)cc1 (single isomer, unassigned; (-)) [Example 68, (−)-4-{[(6-Bromo-3-methyl-2-phenylquinolin-4-yl)carbonyl]amino}-3-(4-chlorophenyl)butanoic Acid] | > 1 µM
7 | Cc1c(-c2ccccc2)nc2ccc(Br)cc2c1C(=O)NC(C)C(CC(=O)O)c1ccccc1Cl (racemic) [Example 148, (+/−)-4-{[(6-Bromo-3-methyl-2-phenylquinolin-4-yl)carbonyl]amino}-3-(2-chlorophenyl)pentanoic Acid] | 0.042 µM
8 | COc1ccccc1C(CNC(=O)c1c(C)c(-c2ccccc2)nc2ccc(Br)cc12)C(=O)O (single isomer, unassigned; (-)) [Example 8, (−)-3-{[(6-Bromo-3-methyl-2-phenylquinolin-4-yl)carbonyl]amino}-2-(2-methoxyphenyl)propanoic Acid] | 0.13 µM

Results, then the molecule that gave them:

Row | IC50 | Structure (SMILES)
9 | 0.015 µM | Cc1c(-c2ccccc2)nc2ccc(Br)cc2c1C(=O)NCC(CCC(=O)O)c1cc(F)ccc1Cl (single isomer, unassigned; (-)) [Example 164, (−)-5-{[(6-Bromo-3-methyl-2-phenylquinolin-4-yl)carbonyl]amino}-4-(2-chloro-5-fluorophenyl)pentanoic Acid]
10 | 0.042 µM | COc1cc(F)ccc1C(C)(CNC(=O)c1c(C)c(-c2ccccc2)nc2ccc(Br)cc12)CC(=O)O (racemic) [Example 138, (+/−)-4-{[(6-Bromo-3-methyl-2-phenylquinolin-4-yl)carbonyl]amino}-3-(4-fluoro-2-methoxyphenyl)-3-methylbutanoic Acid]
11 | 0.0087 µM | Cc1c(-c2ccccc2)nc2ccc(Br)cc2c1C(=O)NCC(CCC(=O)O)c1cc(F)ccc1Cl (racemic) [Example 163, (+/−)-5-{[(6-Bromo-3-methyl-2-phenylquinolin-4-yl)carbonyl]amino}-4-(2-chloro-5-fluorophenyl)pentanoic Acid]
12 | 0.0061 µM | Cc1c(-c2ccccc2)nc2ccc(Br)cc2c1C(=O)NCC(CCC(=O)O)c1ccccc1OC(F)(F)F (single isomer, unassigned; (+)) [Example 210, (+)-5-{[(6-Bromo-3-methyl-2-phenylquinolin-4-yl)carbonyl]amino}-4-[2-(trifluoromethoxy)phenyl]pentanoic Acid]
